Experimental data as given in doi:10.1101/2023.12.04.569845, “Identification of 4-(6-((2-methoxyphenyl)amino)pyrazin-2-yl)benzoic acids as CSNK2A inhibitors with antiviral activity and improved selectivity over PIM3” (bioRxiv, 2023).
Read-outs that look alike come from different tables or passages of the source. Each block holds one compound with its values, some of them ahead of it.

Legend:
Experiment in all cases: biochemical
Parameters in all cases: Thermal shift (DSF, SYPRO Orange) Tm shift of recombinant kinase domains at 10 uM compound
[1] = molecular target: T1, NEK1 (Homo sapiens, UniProt Q96PY6)
T1 sequence (Q96PY6 1-1258): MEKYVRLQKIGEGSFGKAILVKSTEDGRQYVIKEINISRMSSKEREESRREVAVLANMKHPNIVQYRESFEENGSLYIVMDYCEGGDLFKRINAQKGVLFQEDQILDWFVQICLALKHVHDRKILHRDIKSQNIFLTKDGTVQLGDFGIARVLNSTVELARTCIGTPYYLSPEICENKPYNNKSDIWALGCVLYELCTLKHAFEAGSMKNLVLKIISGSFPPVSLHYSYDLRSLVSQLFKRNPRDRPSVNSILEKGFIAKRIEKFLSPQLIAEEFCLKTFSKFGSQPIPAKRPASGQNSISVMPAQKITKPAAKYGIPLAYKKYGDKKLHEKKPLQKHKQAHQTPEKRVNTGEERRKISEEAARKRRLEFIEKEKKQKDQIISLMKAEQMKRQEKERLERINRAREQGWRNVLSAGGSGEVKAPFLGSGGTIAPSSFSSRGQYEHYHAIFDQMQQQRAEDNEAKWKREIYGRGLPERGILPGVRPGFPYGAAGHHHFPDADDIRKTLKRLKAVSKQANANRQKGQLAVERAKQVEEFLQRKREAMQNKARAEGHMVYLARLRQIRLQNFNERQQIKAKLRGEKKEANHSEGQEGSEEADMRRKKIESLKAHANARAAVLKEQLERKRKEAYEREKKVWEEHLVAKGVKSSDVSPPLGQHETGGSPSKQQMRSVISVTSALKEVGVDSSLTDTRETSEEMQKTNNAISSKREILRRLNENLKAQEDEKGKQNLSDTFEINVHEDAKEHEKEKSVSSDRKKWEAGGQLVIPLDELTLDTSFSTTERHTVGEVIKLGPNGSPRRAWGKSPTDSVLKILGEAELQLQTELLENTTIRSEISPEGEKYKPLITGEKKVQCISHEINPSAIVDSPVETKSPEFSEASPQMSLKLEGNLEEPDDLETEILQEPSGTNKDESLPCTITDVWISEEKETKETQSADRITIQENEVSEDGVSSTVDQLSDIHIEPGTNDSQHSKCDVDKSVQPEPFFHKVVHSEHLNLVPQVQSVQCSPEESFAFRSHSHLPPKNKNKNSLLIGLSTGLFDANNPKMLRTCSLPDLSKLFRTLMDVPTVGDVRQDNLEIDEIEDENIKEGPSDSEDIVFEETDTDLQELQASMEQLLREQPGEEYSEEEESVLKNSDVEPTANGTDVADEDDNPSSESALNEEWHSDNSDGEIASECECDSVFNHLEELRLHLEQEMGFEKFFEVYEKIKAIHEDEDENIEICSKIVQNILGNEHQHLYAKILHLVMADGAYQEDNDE

[2] = molecular target: T2, LOK (Homo sapiens, UniProt O94804)
T2 construct: gene STK10

[3] = molecular target: T3, DRAK2 (Homo sapiens, UniProt O94768)
T3 construct: gene STK17B
T3 sequence (O94768 1-372): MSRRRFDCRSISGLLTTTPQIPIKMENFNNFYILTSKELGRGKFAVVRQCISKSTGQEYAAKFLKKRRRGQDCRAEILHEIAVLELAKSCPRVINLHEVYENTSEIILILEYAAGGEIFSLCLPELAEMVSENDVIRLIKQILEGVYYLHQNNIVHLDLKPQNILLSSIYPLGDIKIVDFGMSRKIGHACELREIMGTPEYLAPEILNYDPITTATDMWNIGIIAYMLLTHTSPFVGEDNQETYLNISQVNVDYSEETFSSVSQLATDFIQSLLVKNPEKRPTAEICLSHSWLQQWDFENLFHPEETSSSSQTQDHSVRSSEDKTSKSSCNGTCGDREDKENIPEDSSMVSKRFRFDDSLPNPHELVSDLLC

[4] = molecular target: T4, BMPR2 (Homo sapiens, UniProt Q13873)
T4 sequence (Q13873 1-1038): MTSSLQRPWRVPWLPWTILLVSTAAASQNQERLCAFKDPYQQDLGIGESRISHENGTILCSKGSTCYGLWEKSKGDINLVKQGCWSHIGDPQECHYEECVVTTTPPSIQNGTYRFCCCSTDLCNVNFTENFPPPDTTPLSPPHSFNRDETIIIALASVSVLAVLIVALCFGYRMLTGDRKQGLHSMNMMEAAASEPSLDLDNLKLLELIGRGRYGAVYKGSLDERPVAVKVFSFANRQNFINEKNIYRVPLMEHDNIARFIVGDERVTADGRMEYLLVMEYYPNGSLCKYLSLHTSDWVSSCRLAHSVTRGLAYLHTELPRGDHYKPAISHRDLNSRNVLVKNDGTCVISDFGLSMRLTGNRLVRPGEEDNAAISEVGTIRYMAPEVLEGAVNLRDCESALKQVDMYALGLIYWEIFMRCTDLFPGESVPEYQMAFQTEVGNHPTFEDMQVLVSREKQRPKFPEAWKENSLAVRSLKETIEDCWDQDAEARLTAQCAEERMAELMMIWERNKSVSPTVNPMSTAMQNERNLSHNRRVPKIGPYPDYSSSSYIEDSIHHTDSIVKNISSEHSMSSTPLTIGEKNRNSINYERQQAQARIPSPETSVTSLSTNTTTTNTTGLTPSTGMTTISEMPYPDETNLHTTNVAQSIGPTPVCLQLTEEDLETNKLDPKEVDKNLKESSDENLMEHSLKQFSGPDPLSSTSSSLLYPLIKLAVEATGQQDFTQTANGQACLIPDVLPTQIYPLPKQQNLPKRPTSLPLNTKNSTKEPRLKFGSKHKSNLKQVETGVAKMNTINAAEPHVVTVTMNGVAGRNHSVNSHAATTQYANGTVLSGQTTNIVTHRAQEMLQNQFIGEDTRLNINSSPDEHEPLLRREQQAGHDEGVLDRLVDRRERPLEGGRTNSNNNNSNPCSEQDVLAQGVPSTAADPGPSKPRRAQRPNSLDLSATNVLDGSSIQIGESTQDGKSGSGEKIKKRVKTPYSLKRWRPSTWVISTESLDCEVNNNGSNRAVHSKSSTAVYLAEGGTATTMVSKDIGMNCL

T2 sequence (O94804 whole entry): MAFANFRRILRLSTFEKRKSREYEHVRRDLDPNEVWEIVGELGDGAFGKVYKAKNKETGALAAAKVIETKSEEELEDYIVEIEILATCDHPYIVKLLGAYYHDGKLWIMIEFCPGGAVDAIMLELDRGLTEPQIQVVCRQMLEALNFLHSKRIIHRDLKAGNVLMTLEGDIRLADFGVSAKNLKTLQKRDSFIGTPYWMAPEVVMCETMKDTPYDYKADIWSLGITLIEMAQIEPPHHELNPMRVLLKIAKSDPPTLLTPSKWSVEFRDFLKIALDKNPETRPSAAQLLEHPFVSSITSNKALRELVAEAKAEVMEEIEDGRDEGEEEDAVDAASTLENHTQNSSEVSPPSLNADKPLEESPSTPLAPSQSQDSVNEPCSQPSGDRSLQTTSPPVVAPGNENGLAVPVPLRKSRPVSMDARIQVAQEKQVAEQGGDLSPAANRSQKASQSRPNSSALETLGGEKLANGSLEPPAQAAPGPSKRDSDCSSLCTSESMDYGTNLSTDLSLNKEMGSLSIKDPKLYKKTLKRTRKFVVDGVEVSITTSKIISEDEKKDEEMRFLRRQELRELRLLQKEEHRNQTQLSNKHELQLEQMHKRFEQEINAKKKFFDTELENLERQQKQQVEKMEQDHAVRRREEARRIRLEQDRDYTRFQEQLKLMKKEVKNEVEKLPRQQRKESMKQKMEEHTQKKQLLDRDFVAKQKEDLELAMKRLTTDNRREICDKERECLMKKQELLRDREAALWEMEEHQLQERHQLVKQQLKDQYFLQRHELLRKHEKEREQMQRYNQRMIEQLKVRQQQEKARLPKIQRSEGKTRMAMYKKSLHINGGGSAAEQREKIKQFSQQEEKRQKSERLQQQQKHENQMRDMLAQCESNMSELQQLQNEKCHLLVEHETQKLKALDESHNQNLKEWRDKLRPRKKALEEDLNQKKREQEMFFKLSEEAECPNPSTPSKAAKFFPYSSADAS

ΔTm at 10 µM ([1]; read-out: 6c): 0 °C
ΔTm at 10 µM ([2]; read-out: 6c): 4 °C
ΔTm at 10 µM ([3]; read-out: 6c): 2 °C
ΔTm at 10 µM ([4]; read-out: 6c): 7 °C
SMILES: CC(C)Oc1ccc2ccn(-c3cncc(-c4ccc(C(=O)O)cc4)n3)c2c1 [6c]

ΔTm at 10 µM ([1]; read-out: 7c): 0 °C
ΔTm at 10 µM ([2]; read-out: 7c): 4 °C
ΔTm at 10 µM ([3]; read-out: 7c): 0 °C
ΔTm at 10 µM ([4]; read-out: 7c): 0 °C
SMILES: COc1ccc(OC(C)C)cc1Nc1cncc(-c2ccc(C(=O)O)cc2)n1 [7c]

ΔTm at 10 µM ([1]; read-out: 2): 1 °C
ΔTm at 10 µM ([2]; read-out: 2): 8 °C
ΔTm at 10 µM ([3]; read-out: 2): 3 °C
ΔTm at 10 µM ([4]; read-out: 2): 6 °C
SMILES: CC(C)Nc1ccc2cnn(-c3cncc(-c4ccc(C(=O)O)cc4)n3)c2c1 [compound 2, 2]
